Values quoted from earlier work, collected in US11813301B2, “Topical composition with active compounds from Cannabis sativa and Calendula officinalis for reduction of skin lesions” (UAB Satimed, priority 2016, dated 2023).

Test system: keratinocyte proliferation
Details: cannabinoid receptor-independent manner

Row | Compound | inhibition of keratinocyte proliferation
1 | C=C(C)[C@@H]1CCC(C)=C[C@H]1c1c(O)cc(CCCCC)cc1O [CBD, Cannabidiol] | low micromolar range
2 | CCCCCc1cc(O)c2c(c1)OC(C)(C)c1ccc(C)cc1-2 [CBN, Cannabinol] | low micromolar range
3 | CCCCCc1cc(O)c2c(c1)OC(C)(C)[C@@H]1CCC(C)=C[C@@H]21 [Preparation D9-THC, Δ9-tetrahydrocannabinol] | low micromolar range
